Assay results as given in patent US9255103B2, “Substituted pyrazolo[1,5-a]pyrazines as mGluR5 receptor modulators” (Vanderbilt University, priority 2010, dated 2016).
Like-named read-outs stand apart in the source and are kept apart here.

Columns and labels:
human mGluR5a receptor = human mGluR5a receptor (Homo sapiens, UniProt P41594); assay: Cell-based functional Ca2+ mobilization assay (FDSS), potentiation of glutamate EC20 response in H10H cell line; settings: for Emax: percent of maximal glutamate response, human mGluR5 HEK cells; for EC50 / pEC50: HEK cells transfected with human mGluR5 (H10H), presence of glutamate EC20
Chain of human mGluR5a receptor (P41594 21-1180 isoform P41594-2 limits assumed): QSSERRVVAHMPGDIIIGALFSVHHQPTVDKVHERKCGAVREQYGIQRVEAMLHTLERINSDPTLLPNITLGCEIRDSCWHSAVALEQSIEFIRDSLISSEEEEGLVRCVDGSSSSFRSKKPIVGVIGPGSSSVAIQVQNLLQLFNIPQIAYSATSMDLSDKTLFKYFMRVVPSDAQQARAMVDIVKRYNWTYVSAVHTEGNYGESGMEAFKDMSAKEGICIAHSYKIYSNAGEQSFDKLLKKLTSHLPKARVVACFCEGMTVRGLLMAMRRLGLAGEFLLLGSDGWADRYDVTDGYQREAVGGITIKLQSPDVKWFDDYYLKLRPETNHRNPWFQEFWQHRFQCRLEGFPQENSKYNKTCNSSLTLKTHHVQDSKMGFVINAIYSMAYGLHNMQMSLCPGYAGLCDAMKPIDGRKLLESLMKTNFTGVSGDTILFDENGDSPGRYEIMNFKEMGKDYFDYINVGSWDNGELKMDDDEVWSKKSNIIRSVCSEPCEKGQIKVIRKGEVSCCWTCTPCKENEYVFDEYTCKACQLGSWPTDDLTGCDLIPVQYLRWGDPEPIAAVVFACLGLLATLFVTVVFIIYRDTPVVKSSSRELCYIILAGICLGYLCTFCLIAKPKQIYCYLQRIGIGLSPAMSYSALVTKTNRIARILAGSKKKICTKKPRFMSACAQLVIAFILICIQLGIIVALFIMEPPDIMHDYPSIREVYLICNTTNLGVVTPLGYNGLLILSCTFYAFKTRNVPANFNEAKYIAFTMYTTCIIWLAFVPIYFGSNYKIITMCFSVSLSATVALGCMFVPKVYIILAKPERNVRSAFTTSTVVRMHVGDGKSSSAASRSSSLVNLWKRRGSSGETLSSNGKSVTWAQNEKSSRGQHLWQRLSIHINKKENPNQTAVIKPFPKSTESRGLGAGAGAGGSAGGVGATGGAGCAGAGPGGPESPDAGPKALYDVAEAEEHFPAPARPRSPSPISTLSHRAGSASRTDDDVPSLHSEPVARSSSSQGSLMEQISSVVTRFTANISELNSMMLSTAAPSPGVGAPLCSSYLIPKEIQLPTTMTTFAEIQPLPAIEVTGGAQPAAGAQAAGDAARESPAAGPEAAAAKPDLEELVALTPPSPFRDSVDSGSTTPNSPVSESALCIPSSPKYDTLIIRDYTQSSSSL
Procedure: Human embryonic kidney (HEK) cells transfected with rat mGluR5 were plated in clear bottom assay plates for assay in a Functional Drug Screening System (FDSS). In the alternative assay, HEK cells transfected with human mGluR5 (H10H cell line) were plated for assay in the FDSS. […] The cells were loaded with a Ca^2+-sensitive fluorescent dye (e.g., Fluo-4), and the plates were washed and placed in the FDSS instrument. After establishment of a fluorescence baseline for twelve seconds, the compounds of the present invention were added to the cells, and the response in cells was measured. Alternatively, in various further aspects, after establishment of a fluorescence baseline for about three seconds, the compounds of the present invention were added to the cells, and the response in cells was measured. Five minutes later, an mGluR5 agonist (e.g., glutamate, 3,5-dihydroxyphenylglycine, or quisqualate) was added to the cells, and the response of the cells was measured.
The above described assay operated in two modes. In the first mode, a range of concentrations of the present compounds were added to cells, followed by a single fixed concentration of agonist. If a compound acted as a potentiator, an EC50 value for potentiation and a maximum extent of potentiation by the compound at this concentration of agonist was determined by non-linear curve fitting. In the second mode, several fixed concentrations of the present compounds were added to various wells on a plate, followed by a range of concentrations of agonist for each concentration of present compound; the EC50 values for the agonist at each concentration of compound were determined by non-linear curve fitting. A decrease in the EC50 value of the agonist with increasing concentrations of the present compounds (a leftward shift of the agonist concentration-response curve) is an indication of the degree of mGluR5 potentiation at a given concentration of the present compound. An increase in the EC50 value of the agonist with increasing concentrations of the present compounds (a rightward shift of the agonist concentration-response curve) is an indication of the degree of mGluR5 antagonism at a given concentration of the present compound. The second mode also indicates whether the present compounds also affect the maximum response to mGluR5 to agonists.
The mGluR5 activity was determined using the metabotropic glutamate receptor activity assays in human embryonic kidney cells as described herein, wherein the human embryonic kidney cells were transfected with human mGluR5. The compounds in Table 1 were synthesized with methods identical or analogous to those shown herein. The requisite starting materials were commercially available, described in the literature, or readily synthesized by one skilled in the art of organic synthesis.
Human mGluR5a cDNA in pCMV6-XL6 mammalian expression plasmid was purchased from OriGene Technologies, Inc. (catalogue number SC326357) and subcloned into pcDNA3.1(−). Human embryonic kidney (HEK)293A cells were then transfected with human mGluR5a pcDNA3.1(−) using LipofectAmine2000 (Invitrogen) and monoclones were selected and tested for functional response using a Ca^2+ mobilization assay. Monoclones were named for the species (“H” for human) plus the location on the plate (e.g. “10H”).
HEK cells transfected with the human mGluR5a receptor (H10H cell line) were plated at 15,000 cells/well in clear-bottomed poly-D-lysine-coated assay plates (BD Falcon) in glutamate-glutamine-free growth medium and incubated overnight at 37° C. and 5% CO2. The following day, the growth medium was removed and the cells were washed with assay buffer containing 1× Hank's balanced salt solution (Invitrogen, Carlsbad, Calif.), 20 mM HEPES, 2.5 mM probenecid, pH 7.4 and left with 20 μL of this reagent.

[1] = HEK293, maximum average response at a single concentration, read-out: Emax
[2] = maximum average response at a single concentration

Row | SMILES | Emax (human mGluR5a receptor; [1]) [%] | EC50 (human mGluR5a receptor; read-out: EC50) [µM] | melting point [°C] | pEC50 (human mGluR5a receptor; concentration in mol/L) | EC50 (human mGluR5a receptor; concentration in mol/L, read-out: pEC50 (converted)) [µM] | Emax (human mGluR5a receptor; [2]) [%]
1 | O=C(c1ccc(F)cc1)N1CCn2nc(COc3ccccc3)cc2C1C(F)(F)F (racemic) [Compound 53] | 67 | 2.63 | 53.1 | – | – | –
2 | O=C(c1cccc(F)c1)N1CCn2nc(COc3cccc(F)c3)cc2C1 [Compound 10] | 69 | 0.269 | – | 6.57 | – | –
3 | O=C(c1ccc(F)cc1F)N1CCn2nc(COc3cccc(F)c3)cc2C1 [Compound 11] | 82 | 0.273 | 79.7 | 6.56 | – | –
4 | O=C(c1ccc(F)c(F)c1)N1CCn2nc(COc3cccc(F)c3)cc2C1 [Compound 13] | 75 | 0.587 | 112.7 | 6.23 | – | –
5 | Cc1cccnc1C(=O)N1CCn2nc(COc3cccc(F)c3)cc2C1 [Compound 14] | 51 | > 10 | 125.4 | <5.00 | – | –
6 | Cc1ccc(C(=O)N2CCn3nc(COc4cccc(F)c4)cc3C2)cn1 [Compound 15] | 30 | > 30.2 | 88.2 | <4.52 | – | –
7 | O=C(c1ncccc1F)N1CCn2nc(COc3cccc(F)c3)cc2C1 [Compound 20] | 65 | 2.95 | 114 | 5.53 | – | –
8 | O=C(c1ncc(F)cc1F)N1CCn2nc(COc3cccc(F)c3)cc2C1 [Compound 21] | 77 | 1.28 | > 300 | 5.89 | – | –
9 | Cc1ncccc1C(=O)N1CCn2nc(COc3cccc(F)c3)cc2C1 [Compound 22] | 34 | 2.91 | – | 5.53 | – | –
10 | O=C(c1cncc(F)c1)N1CCn2nc(COc3cccc(F)c3)cc2C1 [Compound 23] | 58 | 1.37 | > 300 | – | 1.51 | –
11 | Cc1cccc(C(=O)N2CCn3nc(COc4cccc(F)c4)cc3C2)n1 [Compound 24] | 58 | 3.03 | 88 | 5.51 | – | –
12 | N#Cc1cc(F)cc(C(=O)N2CCn3nc(COc4ccccc4)cc3C2)c1 [Compound 26] | 52 | 0.083 | 109.8 | 7.08 | – | –
13 | O=C(c1cnccn1)N1CCn2nc(COc3cccc(F)c3)cc2C1 [Compound 34] | 60 | 3.02 | – | 5.52 | – | –
14 | Cc1ncc(C(=O)N2CCn3nc(COc4cccc(F)c4)cc3C2)cn1 [Compound 37] | 12 | > 30.2 | – | <4.52 | – | –
15 | CC1CN(C(=O)c2cccc(F)c2)Cc2cc(COc3ccccc3)nn21 (centres unmarked) [Compound 42] | 69 | 0.138 | – | 6.86 | – | –
16 | CC1CN(C(=O)c2cc(F)cc(C#N)c2)Cc2cc(COc3ccccc3)nn21 (centres unmarked) [Compound 44] | 66 | 0.692 | – | 6.16 | – | –
17 | CC1Cn2nc(COc3ccccc3)cc2CN1C(=O)c1cccc(F)c1 (centres unmarked) [Compound 47] | 52 | 1.07 | – | 5.97 | – | –
18 | CC1Cn2nc(COc3ccccc3)cc2CN1C(=O)c1cccc(F)c1 (centres unmarked) [Compound 48] | – | 0.49 | – | 6.31 | – | 67
19 | CC1Cn2nc(COc3ccccc3)cc2CN1C(=O)c1cc(F)cc(C#N)c1 (centres unmarked) [Compound 51] | 56 | 0.759 | – | 6.12 | – | –
20 | CC1Cn2nc(COc3ccccc3)cc2CN1C(=O)c1cc(F)cc(C#N)c1 (centres unmarked) [Compound 52] | – | > 10 | – | <5.00 | – | 69

Second part, the compound after the results:

Row | Emax (human mGluR5a receptor; [1]) [%] | EC50 (human mGluR5a receptor; read-out: EC50) [µM] | melting point [°C] | pEC50 (human mGluR5a receptor; concentration in mol/L) | EC50 (human mGluR5a receptor; concentration in mol/L, read-out: pEC50 (converted)) [µM] | Emax (human mGluR5a receptor; [2]) [%] | SMILES
21 | 77 | 0.172 | 126.5 | – | – | – | CC1CN(C(=O)c2ccc(F)cc2)Cc2cc(COc3ccccc3)nn21 (racemic) [Compound 16]
22 | 81 | 0.673 | – | – | – | – | CC1Cn2nc(COc3ccccc3)cc2CN1C(=O)c1ccc(F)cc1 (racemic) [Compound 17]
23 | 25 | > 30.2 | – | – | – | – | CC(Oc1ccccc1)c1cc2n(n1)CCN(C(=O)c1ccc(F)cc1)C2 (racemic) [Compound 54]
24 | 67 | 0.161 | 106 | 6.79 | – | – | O=C(c1ccc(F)cc1)N1CCn2nc(COc3ccccc3)cc2C1 [Compound 1]
25 | 76 | 0.201 | – | 6.70 | – | – | O=C(c1ccccc1F)N1CCn2nc(COc3ccccc3)cc2C1 [Compound 2]
26 | 66 | 0.169 | – | 6.77 | – | – | O=C(c1cccc(F)c1)N1CCn2nc(COc3ccccc3)cc2C1 [Compound 3]
27 | 70 | 0.414 | 100.6 | 6.38 | – | – | O=C(c1ccc(F)c(F)c1)N1CCn2nc(COc3ccccc3)cc2C1 [Compound 4]
28 | 50 | 0.0796 | – | 7.10 | – | – | O=C(c1cc(F)cc(F)c1)N1CCn2nc(COc3ccccc3)cc2C1 [Compound 5]
29 | 74 | 0.292 | 95.8 | 6.53 | – | – | O=C(c1c(F)cccc1F)N1CCn2nc(COc3ccccc3)cc2C1 [Compound 6]
30 | 58 | 0.406 | – | 6.39 | – | – | O=C(c1cccc(F)c1F)N1CCn2nc(COc3ccccc3)cc2C1 [Compound 7]
31 | 78 | 0.208 | – | 6.68 | – | – | O=C(c1ccc(F)cc1F)N1CCn2nc(COc3ccccc3)cc2C1 [Compound 8]
32 | 72 | 0.257 | 159.2 | 6.59 | – | – | O=C(c1ccccc1)N1CCn2nc(COc3cccc(F)c3)cc2C1 [Compound 9]
33 | 69 | – | 126.9 | – | – | – | O=C(c1ccc(F)cc1)N1CCn2nc(COc3cccc(F)c3)cc2C1 [Compound 12]
34 | 66 | 0.256 | – | 6.59 | – | – | CC1(C)CN(C(=O)c2ccc(F)cc2)Cc2cc(COc3ccccc3)nn21 [Compound 18]
35 | 60 | 0.457 | – | 6.34 | – | – | N#Cc1cccc(C(=O)N2CCn3nc(COc4ccccc4)cc3C2)c1 [Compound 25]
36 | 23 | > 30.2 | 60.3 | <4.52 | – | – | N#Cc1ccc(C(=O)N2CCn3nc(COc4ccccc4)cc3C2)cc1F [Compound 27]
37 | 58 | 0.295 | – | 6.53 | – | – | O=C(c1ccc(F)cc1)N1CCn2nc(COc3ccc(F)cc3)cc2C1 [Compound 38]
38 | 58 | 0.708 | – | 6.15 | – | – | CC1CN(C(=O)c2ccc(F)cc2)Cc2cc(COc3ccccc3)nn21 (centres unmarked) [Compound 40]
39 | – | 0.162 | – | 6.79 | – | 74 | CC1CN(C(=O)c2ccc(F)cc2)Cc2cc(COc3ccccc3)nn21 (centres unmarked) [Compound 41]
40 | 62 | 0.55 | – | 6.26 | – | – | O=C(c1ccc(F)cc1)N1CCn2nc(COc3ccccc3)c(F)c2C1 [Compound 56]
41 | 51 | 4.57 | – | 5.34 | – | – | Nc1c(COc2ccccc2)nn2c1CN(C(=O)c1ccc(F)cc1)CC2 [Compound 58]
42 | 15 | 1.82 | – | 5.74 | – | – | COc1c(COc2ccccc2)nn2c1CN(C(=O)c1ccc(F)cc1)CC2 [Compound 59]
